Assay results: PMC8634879, “Design, Synthesis, and Biological Evaluation of Pyrano[2,3-c]-pyrazole–Based RalA Inhibitors Against Hepatocellular Carcinoma” (Frontiers in Chemistry, 2021)

What was measured:
[1] = system: HepG2 cells; assay: Cell proliferation assay (MTT), HepG2; type: cell-based; conditions: Homo sapiens, HepG2, Table 1, cell proliferation inhibition; read-out: IC50 (μM) HepG2
Description: (§1) The antibodies recognizing LC3, p62/SQSTM1, RalA, RalB, and GAPDH were purchased from Proteintech (Wuhan, China). HCC cell lines, including HepG2, Hep3B, Huh-7, and SMMC-7721, were obtained from the Chinese Center for Type Culture Collection (Wuhan, China) and cultured in DMEM (Dulbecco’s modified Eagle’s medium) with 10% FBS (fetal bovine serum) and streptomycin. Cytotoxicity assays were performed by using the MTT method as previously described.
(§2) The in vitro RalA/B bioactivity assays were performed following methods outlined in previous reports. ([Yan et al., 2016]; [Zhang et al., 2018]; [Walsh et al., 2019]; [Bum-Erdene et al., 2020]). In brief, the lysates of the test compound or vehicle-treated cells were cleared using cold centrifugation, and supernatants were collected. An RalBP1 solution was added to 96-well plates and incubated for 1–2 h, and then the plates were washed thrice using ELISA buffer. Next, cellular lysates were added, and samples were incubated overnight at 4°C. Then, ice-cold mouse anti-FLAG antibody was added, and samples were incubated for one more hour. After subsequent washing with ELISA buffer thrice, the HRP-conjugated anti-mouse antibody was added, and samples were incubated for another hour. Then, the HRP substrate was added. Antigen–antibody reactions were quenched by the addition of sulfuric acid (2 mol/L). Remaining RalA/B was detected by the OD450 values which were collected by using a plate reader. Cell proliferation assays, colony formation assays, apoptosis assays, GST pulldown, and Western blotting were used following methods outlined in our previous reports. ([Zhou et al., 2015]; [Zhang et al., 2016]; [Yang et al., 2017]; [He et al., 2019]). Autophagy levels and protein immunoblotting were used following the methods mentioned in our previous reports ([Pan et al., 2018]; [Wang et al., 2018]; [Hao et al., 2019]; [Wang et al., 2019]; [Peng et al., 2020]). Detailed experimental procedures are described in supporting materials.

[2] = target: T1, RalA (Homo sapiens, UniProt P11233); assay: ELISA-based RalA activity assay (RalBP1-coated plates, lysates of compound-treated cells); type: biochemical; conditions: 1 μM compound; % control = activity remained
T1 construct: expressed in transfected cells; host or cells: HepG2 (from b6; the methods paragraph names no cell line)
T1 sequence (P11233 1-203 limits assumed): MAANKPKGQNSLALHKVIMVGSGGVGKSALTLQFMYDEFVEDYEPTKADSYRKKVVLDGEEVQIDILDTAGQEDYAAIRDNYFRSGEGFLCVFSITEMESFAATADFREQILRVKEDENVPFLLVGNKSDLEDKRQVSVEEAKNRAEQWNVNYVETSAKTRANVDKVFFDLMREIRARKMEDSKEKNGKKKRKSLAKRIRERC
Description: as §2

[3] = system: Huh-7 cells; assay: Cell proliferation assay (MTT), Huh-7; type: cell-based; conditions: Homo sapiens, Table 1, cell proliferation inhibition, read-out: IC50 (μM) Huh7
Description: as §1, §2

[4] = target: T2, RalB (Homo sapiens, UniProt P11234); assay: ELISA-based RalB activity assay (RalBP1-coated plates, lysates of compound-treated cells); type: biochemical; conditions: 1 μM compound; % control = active (RalBP1-bound) RalB remaining
T2 construct: expressed in transfected cells; host or cells: HepG2 (from b6; the methods paragraph names no cell line)
T2 sequence (P11234 1-203 limits assumed): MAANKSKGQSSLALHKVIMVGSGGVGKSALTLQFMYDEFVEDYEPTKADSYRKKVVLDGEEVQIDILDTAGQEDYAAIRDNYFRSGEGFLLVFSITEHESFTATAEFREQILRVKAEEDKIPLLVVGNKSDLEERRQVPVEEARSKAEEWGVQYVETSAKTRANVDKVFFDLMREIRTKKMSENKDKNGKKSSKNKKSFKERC
Description: as §2

Row | SMILES | melting point [°C] | IC50 [1] [µM] | remaining activity at 1 µM [2] [%] | IC50 [3] [µM] | remaining activity at 1 µM [4] [%]
1 | Cc1ccc(S(=O)(=O)NC2=C(C#N)C(c3ccc(Br)cc3)c3c(C)nn(-c4ccccc4)c3O2)cc1 (stereo not drawn) [4d, N-(4-(4-bromophenyl)-5-cyano-3-methyl-1-phenyl-1,4-dihydropyrano[2,3-c]-pyrazol-6-yl)-4-methylbenzenesulfonamide] | 101.6 to 102.3 | > 10 | 77 | > 10 | 89
2 | COc1ccc(S(=O)(=O)NC2=C(C#N)C(c3cccc(OC)c3)c3c(C)nn(-c4ccccc4Cl)c3O2)cc1 (stereo not drawn) [4y, N-(1-(2-chlorophenyl)-5-cyano-4-(3-methoxyphenyl)-3-methyl-1,4-dihydropyrano[2,3-c]-pyrazol-6-yl)-4-methoxybenzenesulfonamide] |  | > 10 | 54 | > 10 | 73
3 | Cc1ccc(S(=O)(=O)NC2=C(C#N)C(c3ccco3)c3c(C)nn(-c4ccccc4)c3O2)cc1 (stereo not drawn) [4j, N-(5-cyano-4-(furan-2-yl)-3-methyl-1-phenyl-1,4-dihydropyrano[2,3-c]-pyrazol-6-yl)-4-methylbenzenesulfonamide] | 153.8 to 154.3 | 9.57 ± 1.05 | 57 | 9.94 ± 1.23 | 70
4 | Cc1ccc(S(=O)(=O)NC2=C(C#N)C(c3ccccc3)c3c(C)nn(-c4ccccc4)c3O2)cc1 (stereo not drawn) [4a, N-(5-cyano-3-methyl-1,4-diphenyl-1,4-dihydropyrano[2,3-c]-pyrazole-6-yl)-4-methylbenzenesulfonamide] | 68.3 to 69.7 | > 10 | 74 | > 10 | 85
5 | Cc1ccc(-n2nc(C)c3c2OC(NS(=O)(=O)c2ccc(C)cc2)=C(C#N)C3c2ccccc2)cc1 (stereo not drawn) [4ae, N-(5-cyano-3-methyl-4-phenyl-1-(p-tolyl)-1,4-dihydro-pyrano[2,3-c]-pyrazol-6-yl)-4-methylbenzenesulfonamide] | 142.5 to 143 | > 10 | 79 | > 10 | 78
6 | COc1cccc(C2C(C#N)=C(NS(=O)(=O)c3ccccc3[N+](=O)[O-])Oc3c2c(C)nn3-c2ccccc2Cl)c1 (stereo not drawn) [4z, N-(1-(2-chlorophenyl)-5-cyano-4-(3-methoxyphenyl)-3-methyl-1,4-dihydropyrano[2,3-c]-pyrazol-6-yl)-2-nitrobenzenesulfonamide] |  | > 10 | 53 | > 10 | 60
7 | Cc1ccc(S(=O)(=O)NC2=C(C#N)C(c3ccsc3)c3c(C)nn(-c4ccccc4Cl)c3O2)cc1 (stereo not drawn) [4v, N-(1-(2-chlorophenyl)-5-cyano-3-methyl-4-(thiophen-3-yl)-1,4-dihydropyrano[2,3-c]-pyrazol-6-yl)-4-methylbenzenesulfonamide] | 67.4 to 68.8 | > 10 | 56 | > 10 | 78
8 | Cc1ccc(S(=O)(=O)NC2=C(C#N)C(c3ccccc3)c3c(C)nn(-c4ccc(F)cc4)c3O2)cc1 (stereo not drawn) [4ag, N-(5-cyano-1-(4-fluorophenyl)-3-methyl-4-phenyl-1,4-dihydropyrano[2,3-c]-pyrazol-6-yl)-4-methylbenzenesulfonamide] | 138.6 to 139.3 | > 10 | 66 | > 10 | 75
9 | COc1ccc(C2C(C#N)=C(NS(=O)(=O)c3ccc(C)cc3)Oc3c2c(C)nn3-c2ccccc2)cc1 (stereo not drawn) [4i, N-(5-cyano-4-(4-methoxyphenyl)-3-methyl-1-phenyl-1,4-dihydropyrano[2,3-c]-pyrazol-6-yl)-4-methylbenzenesulfonamide] | 145.2 to 146 | > 10 | 69 | > 10 | 60
10 | Cc1ccc(S(=O)(=O)NC2=C(C#N)C(c3ccc(F)cc3)c3c(C)nn(-c4ccccc4)c3O2)cc1 (stereo not drawn) [4e, N-(5-cyano-4-(4-fluorophenyl)-3-methyl-1-phenyl-1,4-dihydropyrano[2,3-c]-pyrazol-6-yl)-4-methylbenzenesulfonamide] | 113 to 113.5 | > 10 | 74 | > 10 | 76
11 | Cc1ccc(S(=O)(=O)NC2=C(C#N)C(c3ccccc3)c3c(C)nn(-c4ccccc4Cl)c3O2)cc1 (stereo not drawn) [4ad, N-(1-(2-chlorophenyl)-5-cyano-3-methyl-4-phenyl-1,4-dihydropyrano[2,3-c]-pyrazol-6-yl)-4-methylbenzenesulfonamide] | 77.4 to 78 | > 10 | 52 | > 10 | 64
12 | Cc1ccc(S(=O)(=O)NC2=C(C#N)C(c3cccc(Br)c3)c3c(C)nn(-c4ccccc4)c3O2)cc1 (stereo not drawn) [4f, N-(4-(3-bromophenyl)-5-cyano-3-methyl-1-phenyl-1,4-dihydropyrano[2,3-c]-pyrazol-6-yl)-4-methylbenzenesulfonamide] | 68.4 to 69.5 | 8.83 ± 0.75 | 47 | > 10 | 71
13 | Cc1ccc(S(=O)(=O)NC2=C(C#N)C(c3ccncc3)c3c(C)nn(-c4ccccc4Cl)c3O2)cc1 (stereo not drawn) [4u, N-(1-(2-chlorophenyl)-5-cyano-3-methyl-4-(pyridin-4-yl)-1,4-dihydropyrano[2,3-c]-pyrazol-6-yl)-4-methylbenzenesulfonamide] | 79 to 80 | 8.71 ± 0.74 | 44 | > 10 | 50
14 | COc1cccc(C2C(C#N)=C(NS(=O)(=O)c3ccc(C)cc3)Oc3c2c(C)nn3-c2ccccc2Cl)c1 (stereo not drawn) [4w, N-(1-(2-chlorophenyl)-5-cyano-4-(3-methoxyphenyl)-3-methyl-1,4-dihydropyrano[2,3-c]-pyrazol-6-yl)-4-methylbenzenesulfonamide] | 66.4 to 67.7 | 8.87 ± 0.95 | 51 | > 10 | 69
15 | COc1cccc(C2C(C#N)=C(NS(=O)(=O)c3cccc([N+](=O)[O-])c3)Oc3c2c(C)nn3-c2ccccc2Cl)c1 (stereo not drawn) [4aa, N-(1-(2-chlorophenyl)-5-cyano-4-(3-methoxyphenyl)-3-methyl-1,4-dihydropyrano[2,3-c]-pyrazol-6-yl)-3-nitrobenzenesulfonamide] |  | > 10 | 72 | > 10 | 73
16 | COc1cccc(C2C(C#N)=C(NS(=O)(=O)c3ccc([N+](=O)[O-])cc3)Oc3c2c(C)nn3-c2ccccc2Cl)c1 (stereo not drawn) [4ab, N-(1-(2-chlorophenyl)-5-cyano-4-(3-methoxyphenyl)-3-methyl-1,4-dihydropyrano[2,3-c]-pyrazol-6-yl)-4-nitrobenzenesulfonamide] |  | > 10 | 60 | > 10 | 65
17 | Cc1ccc(S(=O)(=O)NC2=C(C#N)C(c3ccc(Cl)c(Cl)c3)c3c(C)nn(-c4ccccc4)c3O2)cc1 (stereo not drawn) [4g, N-(5-cyano-4-(3,4-dichlorophenyl)-3-methyl-1-phenyl-1,4-dihydropyrano[2,3-c]-pyrazol-6-yl)-4-methylbenzenesulfonamide] |  | > 10 | 66 | > 10 | 58
18 | Cc1ccc(S(=O)(=O)NC2=C(C#N)C(c3cccnc3)c3c(C)nn(-c4ccccc4Cl)c3O2)cc1 (stereo not drawn) [4t, N-(1-(2-chlorophenyl)-5-cyano-3-methyl-4-(pyridin-3-yl)-1,4-dihydropyrano[2,3-c]-pyrazol-6-yl)-4-methylbenzenesulfonamide] |  | 8.28 ± 0.89 | 46 | > 10 | 65
